From patent publication US9975860B2, “Anti-angiogenic compounds” (UNIVERSITY COLLEGE DUBLIN—NATIONAL UNIVERSITY OF IRELAND, …, priority 2014, dated 2018)
Entries after “also recorded” stand apart in the source; their conditions may differ.

Experiments:
mouse aortic ring = assay: Ex vivo mouse aortic ring assay (sprout formation); conditions: 10 μM; C57/BL6 mouse aortic rings in matrigel; vs 0.1% DMSO; hydrochloride
Description: Aortae from sex matched C57/BL6 littermates were cleansed of adipose tissue, cut into 2 mm rings and immersed in matrigel. Aortic rings (6 per experiment) were treated with 0.1% DMSO (vehicle control/VC) or with 10 μM of Compound 4, Compound 12, Compound 15 or Compound 20. Sprouts from the perimeter of the aortic ring were counted and quantified as percentage of vehicle control (VC).

[1] = test system: primary hyaloid vessels in zebrafish; assay: Quantification of primary hyaloid vasculature branch number in Tg(fli1:EGFP) zebrafish; format: in vivo
Description: All experiments were carried out under ethical approval granted by the UCD animal research ethics committee. Tg(fli1:EGFP) zebrafish were maintained according to standard procedures on a 14 hr light/10 hr dark cycle at 28° C. Embryos were obtained by natural spawning and developmental stages established by time and morphological criteria. At 48 hours post fertilisation (hpf), 5 embryos per well were placed in 400 μl of Embryo Medium/0.1% DMSO and incubated with compound (typically, 10 μM) at 28° C. on a 14 h light/10 h dark cycle. At 5 days post fertilisation (dpf), larvae were euthanised, and fixed in 4% PFA at 4° C. overnight before analysis.
Prior to analysis of the intraocular vasculature, the control and treated larvae were observed under an Olympus SZX16 stereo zoom microscope and screened for general malformations. Overall patterning of the vasculature (fin, gut and intersegmental vessels) was examined for abnormalities. Right lenses were dissected from the larvae and transferred to depression slides for observation under epi-fluorescence in the Olympus SZX16. Patterning of the hyaloid vessels on the treated larval lenses was compared to 0.1% DMSO controls and the archetypal pattern previously described (Alvarez et al., 2007; Alvarez et al., 2009). The number of primary vessels radiating from the back of the lens (3-4 main branches at 5 dpf in controls and previously described), was counted and the average number was graphed for each drug.
(§1) All experimental protocols were carried out as per example 1 and 2. Briefly, zebrafish larvae were treated with 10 μM of AT-051/41206012 (chemical name 2-[2-(2-methoxyphenyl)ethenyl]pyrazine) purchased from Specs (The Netherlands). At 6 or 48 hours post fertilisation (hpf), 5 embryos per well were placed in 400 μl of Embryo Medium/0.1% DMSO and incubated with 10 μM AT-051/41206012 at 28° C. on a 14 h light/10 h dark cycle. Larvae were treated from 6-48 hpf (intersegmental vessel study) or from 48 to 120 hpf (primary hyaloid vessel study). At the end of the study, larvae were euthanized and fixed in 4% PFA at 4° C. overnight before analysis.
(§2) The number of intersegmental vessels was counted and the average number was graphed for each drug. Right lenses were dissected from the larvae and transferred to depression slides for observation and the number of primary hyaloid vessels radiating from the back of the lens (3-4 main branches at 5 dpf in controls and previously described), was counted and the average number was graphed for each drug.

[2] = test system: human retinal (ARPE-19) cells; assay: MTT cell viability assay in ARPE-19; format: cell-based; conditions: 5, 10, 25, 50, 75 or 90 μM, 96 hours
Description: A 3-(4,5-dimethylthiozol-2-yl)-2,5-diphenyltetrazolium bromide (MTT) dye reduction assay was carried out to determine the cytotoxicity of each compound on either human microvascular endothelial cells (HMECs) or human retinal pigmented epithelium cells (ARPE-19). Cells were maintained in a 95% air and 5% CO2 atmosphere at 37° C. in Dulbecco modified Eagle medium (DMEM, Sigma Aldrich) with 10% fetal bovine serum, 2 mM Gibco® L-glutamine and 100 units/ml penicillin, 1 mg/ml streptomycin (Invitrogen) supplementation. On day 1, cells were trypsinized (Trypsin-EDTA 1×) and seeded 1.4×10^4 cells per well of a 96 well plate and incubated overnight. On day 2, cells were serum staved in DMEM with L-glutamine and penicillin-streptomycin supplementation for 24 h. On day 3, cells were drug treated for 24 h (HMECs) or 96 h (ARPE-19 cells) with 0.1% DMSO or 10 μM to 90 μM of each compound 4, 8, 15, 18 or 20, with 4 replicate wells of each compound. After 24-96 h, cells were incubated with […] 5 mg/ml MTT labelling Reagent (Roche) for 2 h. Subsequently, when purple formazan crystals formed cells were incubated with 1× solubilisation solution (Roche) for 4 h and absorbance read at 570 nm using a microplate reader.

[3] = test system: oxygen induced mouse model of retinopathy; assay: Mouse oxygen-induced retinopathy model of neovascularisation; format: in vivo; conditions: 5 and 20 μM; intravitreal injection on P12, retinas analysed P17; mouse OIR; hydrochloride
Description: The mouse oxygen-induced retinopathy model was used to test the anti-angiogenic activity of compounds 4, 12 and 18. Mouse pups (together with their dams) were placed in 75% oxygen from postnatal day (P) 7 to P12, causing a regression of their retinal blood vessels. On P12, pups were placed back in normoxia (21%) causing a regrowth of retinal blood vessels. Pups received an intravitreal injection on P12, of compound 4, 12, 18 or vehicle control—Hank's Balanced Salt Solution, coinciding with their return to normoxia. Pups were culled on P17 and enucleated. Eyes were fixed in 4% paraformaldehyde, washed and dissected to form retinal flatmounts. Flatmounts were stained with isolectin to visualise blood vessels and imaged. The central avascular area (lacking a network of blood vessels) was quantified using FIJI image analysis software.

[4] = test system: intersegmental vasculature in zebrafish; assay: Quantification of intersegmental vessel number in zebrafish; format: in vivo; conditions: 10 μM; zebrafish embryos treated 6 hpf to 48 hpf
Description: At 6 hours post fertilisation, 5 embryos per well were placed in 400 μL of embryo medium/0.1% DMSO and incubated with 10 μM compound at 28° C. on a 14 h light/10 h dark cycle. At 48 hpf larvae were manually dechorionated, euthanised, and fixed in 4% PFA at 4° C. overnight before analysis. The larvae were then washed with PBS and transferred to depression slides for observation under epi-fluorescence in an Olympus SZX16 fluorescent microscope. The number of intersegmental vessels was counted and the average number was graphed for each drug.
as §1, §2

[5] = 10 μM, zebrafish larvae treated 48 hpf to 5 dpf, vs 0.1% DMSO control
[6] = concentrations below 10 μM (range 1, 2.5, 5, 7.5 and 10 μM tested), zebrafish larvae 48 hpf to 5 dpf

| Compound | angiogenesis (sprout formation) in aortic rings (mouse aortic ring) | inhibition of developmental angiogenesis of the hyaloid vasculature (number of primary hyaloid vessels) [1, 5] | cell viability (MTT assay) [2] | inhibition of developmental angiogenesis of the hyaloid vasculature (number of primary hyaloid vessels) [1, 6] | retinal neovascularisation / revascularisation (central avascular area) [3] | inhibition of developmental angiogenesis of intersegmental vessels (number of intersegmental vessels) [4] |
| --- | --- | --- | --- | --- | --- | --- |
| Cl.Oc1ccccc1/C=C/c1ncccn1 [Compound 15, (E)-2-[2-(Pyrimidin-2-yl)vinyl]phenol hydrochloride] | block angiogenesis (sprout formation); also recorded: inhibit the formation of sprouts in a statistically significant manner | inhibit developmental angiogenesis of the zebrafish hyaloid vasculature in a statistically significant manner | does not affect cell viability | – | – | – |
| Cc1cccc(/C=C/c2ccccc2O)n1.Cl [Compound 8, (E)-2-[2-(6-Methylpyridin-2-yl)vinyl]phenol hydrochloride] | – | inhibit developmental angiogenesis of the zebrafish hyaloid vasculature in a statistically significant manner | does not affect cell viability | inhibit developmental angiogenesis of the zebrafish hyaloid vasculature in a statistically significant manner | – | – |
| C/C(=C\c1ccccc1O)c1cnccn1.Cl [Compound 12, (E)-2-[2-(Pyrazin-2-yl)prop-1-enyl]phenol hydrochloride] | block angiogenesis (sprout formation); also recorded: inhibit the formation of sprouts in a statistically significant manner | inhibit developmental angiogenesis of the zebrafish hyaloid vasculature in a statistically significant manner | – | inhibit developmental angiogenesis of the zebrafish hyaloid vasculature in a statistically significant manner | significantly reduces retinal neovascularisation; also recorded: inhibits retinal revascularisation in a statistically significant manner | inhibit developmental angiogenesis of zebrafish intersegmental vessels in a statistically significant manner |
| Cl.Oc1ccccc1C#Cc1cnccn1 [Compound 20, 2-[2-(pyrazin-2-yl)ethynyl]phenol hydrochloride] | block angiogenesis (sprout formation); also recorded: inhibit the formation of sprouts in a statistically significant manner | inhibit developmental angiogenesis of the zebrafish hyaloid vasculature in a statistically significant manner | does not affect cell viability | inhibit developmental angiogenesis of the zebrafish hyaloid vasculature in a statistically significant manner | – | inhibit developmental angiogenesis of zebrafish intersegmental vessels in a statistically significant manner |
